Source: patent US20220007644A1, “COMPOSITIONS COMPRISING PYRIDINE CARBOXYLATE HERBICIDES WITH PHOTOSYSTEM II AND OPTIONAL HPPD INHIBITOR HERBICIDES” (Corteva Agriscience LLC, priority 2018, published 2022)

Legend:
Type in all cases: in vivo
[1] = system: ABUTH, Abutilon theophrasti (velvetleaf); assay: Greenhouse postemergence herbicidal effect (visual injury, 20-22 d)
Source text: (§1) Greenhouse Trial Methodology—Evaluation of Postemergence Herbicidal Effect
(§2) Seeds of the desired test plant species were planted in a 90:10% v/v (volume/volume) mixture of PRO-MIX® BX (Premier Tech Horticulture, Quakertown, Pa., USA) and PROFILE®GREENS GRADE™ (Profile Products LLC, Buffalo Grove, Ill., USA) planting mixture, which typically has a pH of 5.2 to 6.2 and an organic matter content of at least 50 percent, in plastic pots with a surface area of 103.2 square centimeters (cm^2). In some aspects, to help ensure good germination and healthy plants, a fungicide treatment and/or other chemical or physical treatment was applied. The plants were grown for 7-36 days (d) in a greenhouse with an approximate 14-hour (h) photoperiod which was maintained at about 23° C. during the day and 22° C. during the night. Nutrients and water were added on a regular basis and supplemental lighting was provided with overhead metal halide 1000-Watt lamps as necessary. The plants were employed for testing when they reached the second or third true leaf stage.
(§3) Emulsifiable concentrates of each of each pyridine carboxylate herbicide (Compound A or Compound B) were prepared at 100 grams acid equivalent per liter (g ae/L). The emulsifiable concentrates also included a safener, cloquintocet-mexyl, at 120 grams active ingredient per liter (g ai/L), unless otherwise noted below. An aliquot of each emulsifiable concentrate was placed in a 25 mL glass vial and diluted with an aqueous mixture of 1.25% (v/v) ACTIROB® B esterified rapeseed oil (Bayer Crop Science, Research Triangle Park, N.C., USA) or MSO® Concentrate with LECI-TECH® methylated soybean oil (Loveland Products, Loveland, Colo., USA) to obtain concentrated stock solutions at the highest application rate for each herbicide, based upon a 12 milliliter (mL) application volume at a rate of 187 liters per hectare (L/ha). The concentrated stock solutions were further diluted with an aqueous mixture of 1.25% v/v ACTIROB® B or MSO® Concentrate with LECI-TECH® to obtain stock solutions at reduced application rates for each herbicide. Spray solutions of the herbicide combinations (Compound A or Compound B plus PS-II herbicide and optional HPPD herbicide) were prepared by adding weighed amounts or aliquots of the PS-II herbicide and optional HPPD herbicide to the stock solutions of Compound A or Compound B to form 12-mL spray solutions in two- or three-way combinations.
(§4) The spray solutions were applied to the plant material with an overhead Mandel track sprayer equipped with 8002E nozzles calibrated to deliver 187 L/ha over an application area of 0.503 square meters (m^2) at a spray height of 18 inches ([…] centimeters (cm)) above the average plant canopy. Control plants were sprayed in the same manner with the solvent blank. All pyridine carboxylate herbicide (component a) application rates are given as “g ae/ha” and all PS II inhibitor herbicide (component b) and HPPD inhibitor herbicide (component c) application rates are given as “g ai/ha.”
(§5) The treated plants and control plants were placed in a greenhouse as described above and watered by sub-irrigation to prevent wash-off of the test compounds. After 20-22 d, the condition of the test plants as compared with that of the control plants was determined visually and scored on a scale of 0 to 100 percent where 0 corresponds to no injury and 100 corresponds to complete kill.

[2] = system: AMARE, Amaranthus retroflexus (pigweed); assay: as above; conditions: 140 g ai/ha alone
Source text: as §1, §2, §3, §4, §5

[3] = system: BRSNN, Brassica napus (spring rape); assay: as above
Source text: as §1, §2, §3, §4, §5

[4] = system: BRSNW, Brassica napus (winter rape); assay: as above; conditions: 140 g ai/ha alone
Source text: as §1, §2, §3, §4, §5

[5] = system: CHEAL, Chenopodium album L. (common lambsquarters); assay: as above
Source text: as §1, §2, §3, §4, §5

[6] = system: CIRAR, Cirsium arvense (Canada thistle); assay: as above
Source text: as §1, §2, §3, §4, §5

[7] = system: EPHHL, Euphorbia heterophylla (poinsettia); assay: as above
Source text: as §1, §2, §3, §4, §5

[8] = system: KCHSC, Kochia scoparia (kochia); assay: as above
Source text: as §1, §2, §3, §4, §5

[9] = system: MATCH, Matricaria chamomilla (wild chamomile); assay: as above; conditions: 140 g ai/ha alone
Source text: as §1, §2, §3, §4, §5

[10] = system: POLCO, Polygonum convolvulus (wild buckwheat); assay: as above
Source text: as §1, §2, §3, §4, §5

[11] = system: SASKR, Salsola kali (Russian thistle); assay: as above; conditions: 140 g ai/ha alone
Source text: as §1, §2, §3, §4, §5

[12] = system: SETFA, Setaria faberi (giant foxtail); assay: as above
Source text: as §1, §2, §3, §4, §5

[13] = system: SINAR, Sinapis arvensis (wild mustard); assay: as above; conditions: 140 g ai/ha alone
Source text: as §1, §2, §3, §4, §5

[14] = system: STEME, Stellaria media (chickweed); assay: as above
Source text: as §1, §2, §3, §4, §5

[15] = system: VIOTR, Viola tricolor (wild pansy); assay: as above
Source text: as §1, §2, §3, §4, §5

[16] = system: HORVS, Hordeum vulgare (spring barley); assay: Greenhouse postemergence phytotoxicity on crop (visual injury, 20-22 d); conditions: 140 g ai/ha alone
Source text: as §1, §2, §3, §4, §5

[17] = system: TRZAS, Triticum aestivum (spring wheat); assay: as above; conditions: 140 g ai/ha alone
Source text: as §1, §2, §3, §4, §5

## N#Cc1cc(Br)c(O)c(Br)c1 [Bromoxynil, 3,5-dibromo-4-hydroxbenzonitrile, reference compound]
[1]; 140 g ai/ha alone
  visual injury Obs: 30%
[2]
  visual injury: 5%
[3]; 140 g ai/ha alone
  visual injury Obs: 3%
[4]
  visual injury: 10%
[5]; 140 g ai/ha alone
  visual injury: 0%
  visual injury Obs: 48%
[6]; 140 g ai/ha alone
  visual injury: 45%
  visual injury Obs: 60%
[7]; 140 g ai/ha alone
  visual injury Obs: 30%
[8]; 140 g ai/ha alone
  visual injury: 38%
  visual injury Obs: 35%
[9]
  visual injury: 5%
[10]; 140 g ai/ha alone
  visual injury: 100%
[10]; Fallopia convolvulus, post-emergence, 140 g ai/ha alone, read-out: visual injury Obs
  pest or weed control at 140 g/ha: 55%
[11]
  visual injury: 75%
[12]; 140 g ai/ha alone
  visual injury Obs: 0%
[13]
  visual injury: 10%
[14]; 140 g ai/ha alone
  visual injury Obs: 0%
[15]; 140 g ai/ha alone
  visual injury Obs: 0%
[16]
  visual injury: 0%
[17]
  visual injury: 0%

## C#CCOC(=O)c1nc(-c2ccc3cc[nH]c3c2F)c(F)c(N)c1Cl [Compound B, propargyl 4-amino-3-chloro-5-fluoro-6-(7-fluoro-1H-indol-6-yl)pyridine-2-carboxylate]
[1]; 7.5 g ae/ha alone
  visual injury: 68%
[1]; 10 g ae/ha alone
  visual injury: 68%
[1]; ABUTH, Compound B 10 g/ha
  % visual injury, Obs: 68%
[3]; 7.5 g ae/ha alone
  visual injury: 68%
[3]; 10 g ae/ha alone
  visual injury: 85%
[5]; 7.5 g ae/ha alone
  visual injury: 85%
[5]; 10 g ae/ha alone
  visual injury: 90%
[5]; CHEAL, Compound B 10 g/ha
  % visual injury, Obs: 90%
[6]; 7.5 g ae/ha alone
  visual injury: 45%
[6]; 10 g ae/ha alone
  visual injury: 45%
[6]; CIRAR, Compound B 10 g/ha
  % visual injury, Obs: 45%
[7]; 7.5 g ae/ha alone
  visual injury: 83%
[7]; 10 g ae/ha alone
  visual injury: 99%
[7]; EPHHL, Compound B 10 g/ha
  % visual injury, Obs: 99%
[8]; 7.5 g ae/ha alone
  visual injury: 68%
[8]; 10 g ae/ha alone
  visual injury: 80%
[8]; KCHSC, Compound B 10 g/ha
  % visual injury, Obs: 80%
[10]; 7.5 g ae/ha alone
  visual injury: 73%
[10]; 10 g ae/ha alone
  visual injury: 80%
[10]; POLCO, Compound B 10 g/ha
  % visual injury, Obs: 80%
[12]; 7.5 g ae/ha alone
  visual injury: 70%
[12]; 10 g ae/ha alone
  visual injury: 55%
[12]; SETFA, Compound B 10 g/ha
  % visual injury, Obs: 55%
[14]; 7.5 g ae/ha alone
  visual injury: 100%
[14]; 10 g ae/ha alone
  visual injury: 93%
[14]; STEME, Compound B 10 g/ha
  % visual injury, Obs: 93%
[15]; 7.5 g ae/ha alone
  visual injury: 10%
[15]; 10 g ae/ha alone
  visual injury: 40%
[15]; VIOTR, Compound B 10 g/ha
  % visual injury, Obs: 40%
